Data taken from a compilation of properties of binary mixtures (doi:10.1021/acs.jced.0c00728).

Experiment: xn = mol fraction of the nth substance listed
Settings: 100 kPa

CC[n+]1ccn(C)c1.F[B-](F)(F)F + CCC(=O)O
x1 = 1
Settings | speed of sound [m/s]
303.15 K | 1618
313.15 K | 1595
333.15 K | 1550

CCC(=O)O + CC[n+]1ccn(C)c1.F[B-](F)(F)F
speed of sound [m/s]
Settings | 293.15 K | 303.15 K | 313.15 K | 323.15 K | 333.15 K
x2 = 0 | 1171 | 1134 | – | 1060 | 1025
x2 = 0.0497 | 1173 | 1145 | 1111 | 1080 | 1054
x2 = 0.0888 | 1213 | 1187 | 1160 | 1130 | 1105
x2 = 0.1876 | – | 1332 | 1313 | 1291 | 1270
x2 = 0.2982 | 1463 | 1442 | – | 1396 | 1376
x2 = 0.3836 | 1496 | – | 1456 | – | 1415
x2 = 0.4908 | – | 1500 | – | 1457 | –
x2 = 0.5907 | – | 1521 | 1496 | – | 1463
x2 = 0.6891 | – | 1548 | 1524 | 1501 | 1480
x2 = 0.78 | 1593 | 1572 | 1549 | 1525 | 1506
x2 = 0.8899 | 1617 | 1593 | 1571 | – | 1525
x2 = 0.9453 | 1629 | 1607 | 1584 | – | –
